{
  "source": "patent US20090099150A1",
  "about": "“Methotrexate Combinations For Treating Inflammatory Diseases” (priority 2005, published 2009)",
  "key": {"TNF-α": {"system": "TNF-α", "test": "Plasma TNF-α level (ELISA) at 35 days in collagen-induced arthritis", "assay_type": "in vivo, Lewis rats", "settings": "CIA rats, day 35", "protocol": "(§1) Animals were randomly divided into sixth groups (n=10 for each group); (1) Sham group receiving intraperitoneally 26 mM sodium bicarbonate buffer at pH 8.1-8.3 which constituted the vehicle for M40403; (2) CIA group which constituted rats subjected to collagen induced arthritis as described below; (3) CIA+M40403 (2 mg/kg) group in which rats subjected to collagen-induced arthritis received M40403 at 2 mg/kg i.p. every 24 h, starting from day 25; (4) CIA+MET (0.015 mg/kg) group in which rats subjected to collagen-induced arthritis received orally, methotrexate at 0.015 mg/kg starting from day 25; (5) CIA+MET (0.15 mg/kg) group in which rats subjected to collagen-induced arthritis received orally, methotrexate at 0.15 mg/kg starting from day 25; (6)\n(§2) CIA+MET+M40403 group in which rats subjected to collagen-induced arthritis received methotrexate (0.015 mg/kg; orally) and with M4043 (2 mg/kg, i.p.) starting from day 25.\n(§3) Collagen-induced arthritis was produced as follows. Bovine type II collagen was dissolved in 0.01 M acetic acid at a concentration of 2 mg/ml by stirring overnight at 4° C. Dissolved collagen was frozen at −70° C. until use. Complete Freund's adjuvant was prepared by the addition of Mycobacterium tuberculosis H37Ra at a concentration of 2 mg/ml. Before injection, the collagen was emulsified with an equal volume of complete Freund's adjuvant. Collagen-induced arthritis was elicited as previously described (Salvemini et al Arthritis & rheumatism 44:2909-2921, 2001). On day 1, Lewis rats were injected intradermally at the base of the tail with 100 μl of the emulsion (containing 100 μg of bovine type II collagen). On day 21, a second injection of type II collagen in complete Freund's adjuvant was administered.\n(§4) TNF-α and IL-1β levels were evaluated in plasma at 35 days after the induction of arthritis. The assay was carried out by using a calorimetric, commercial kit (Calbaiochem-Novabiochem Corporation, USA). The ELISA has a lower detection limit of 5 pg/ml."}, "[1]": {"system": "collagen-induced arthritis", "test": "Hind paw volume by plethysmometry in collagen-induced arthritis", "assay_type": "in vivo, Lewis rats", "settings": "CIA rats, alone"}, "[2]": {"test": "Body weight gain in collagen-induced arthritis", "assay_type": "in vivo, Lewis rats", "settings": "CIA rats", "protocol": "as §1, §2, §3"}, "[3]": {"system": "collagen-induced arthritis", "test": "Histological assessment of joint injury at day 35", "assay_type": "in vivo, Lewis rats", "settings": "CIA rats, methotrexate 0.15 mg/kg orally"}, "[4]": {"system": "collagen-induced arthritis", "test": "Radiography of hind paws at day 35", "assay_type": "in vivo, Lewis rats", "settings": "CIA rats; for protection from bone resorption / joint pathology (FIG. 4: histological damage score and radiograph score): alone; for radiographic bone resorption / joint pathology of hind paws: methotrexate 0.15 mg/kg orally"}, "[5]": {"system": "collagen-induced arthritis", "test": "Clinical assessment of collagen-induced arthritis (percent arthritic rats, arthritis index)", "assay_type": "in vivo, Lewis rats", "settings": "CIA rats"}, "IL-1β": {"system": "IL-1β", "test": "Plasma IL-1β level (ELISA) at 35 days in collagen-induced arthritis", "assay_type": "in vivo, Lewis rats", "settings": "CIA rats, day 35", "protocol": "as §1, §2, §3, §4"}, "inflammation": {"system": "inflammation", "settings": "Salvemini et al., Science 286:304-306, 1999; cited from earlier work"}, "[6]": {"system": "type II collagen induced arthritis", "settings": "Salvemini et al., Arthritis & Rheumatism 44:2909-2921, 2001; cited from earlier work"}, "[7]": {"settings": "methotrexate 0.015 mg/kg orally, alone"}, "[8]": {"settings": "methotrexate 0.015 mg/kg orally"}},
  "data": [
    {"smiles": "CN(Cc1cnc2nc(N)nc(N)c2n1)c1ccc(C(=O)N[C@@H](CCC(=O)O)C(=O)O)cc1", "note": "[methotrexate, N-[4-[[(2,4-Diamino-6-pteridinyl)methyl]methylamino]benzoyl]-L-glutamic acid]", "values": [
      {"measurement": "plasma level of TNF-α", "setting": "TNF-α; [7]", "value": "No significant effect"},
      {"measurement": "plasma level of TNF-α", "setting": "TNF-α; methotrexate 0.15 mg/kg orally", "value": "significantly lower"},
      {"measurement": "hind paw volume (paw edema)", "setting": "[1]; [8]", "value": "attenuated the paw edema from day 30 to 35"},
      {"measurement": "hind paw volume (hind paw swelling)", "setting": "[1]; methotrexate 0.15 mg/kg orally", "value": "continuously significant (P<0.001) suppression of hind paw swelling from day 26 to 35"},
      {"measurement": "Emax at 0.15 mg/kg", "setting": "[1]; Rattus norvegicus, po, 672 h, methotrexate 0.15 mg/kg orally, from day 28 to 35, read-out: maximal response, suppression of hind paw swelling", "value": 70, "unit": "%"},
      {"measurement": "body weight gain", "setting": "[2]; [7]", "value": "significantly attenuated the loss in body weight"},
      {"measurement": "body weight gain", "setting": "[2]; methotrexate 0.15 mg/kg orally", "value": "positively affected the weight gain"},
      {"measurement": "histology of the paw: bone erosion and degree of arthritis (damage score)", "setting": "[3]", "value": "the bone erosion as well as the degree of arthritis were significantly reduced"},
      {"measurement": "protection from bone resorption / joint pathology (FIG. 4: histological damage score and radiograph score)", "setting": "[4]; [8]", "value": "No significant protection"},
      {"measurement": "radiographic bone resorption / joint pathology of hind paws", "setting": "[4]", "value": "suppression of joint pathology"},
      {"measurement": "radiographic bone resorption / joint pathology of hind paws", "setting": "[4]; listed as Methogtrexate", "value": "markedly protect from bone resorption"},
      {"measurement": "development of collagen-induced arthritis (percent of arthritic rats)", "setting": "[5]; methotrexate 0.015 mg/kg orally from day 25, alone", "value": "did not significantly altered the development of collagen-induced arthritis"},
      {"measurement": "arthritis index", "setting": "[5]; [7]", "value": "Neither M40403 (2 mg/kg) nor methotrexate. (0.015 mg/kg) treatment alone attenuated the arthritis index"},
      {"measurement": "development of collagen-induced arthritis (percent of arthritic rats)", "setting": "[5]; methotrexate 0.15 mg/kg orally from day 25, alone", "value": "significant reduction in the percent of arthritic rats"},
      {"measurement": "arthritis index", "setting": "[5]; methotrexate 0.15 mg/kg orally, between days 26 and 35 after immunization", "value": "significant suppression (P<0.01)"},
      {"measurement": "plasma level of IL-1β", "setting": "IL-1β; [7]", "value": "No significant effect"},
      {"measurement": "plasma level of IL-1β", "setting": "IL-1β; methotrexate 0.15 mg/kg orally", "value": "significantly lower"}
    ]},
    {"smiles": "[Cl-].[Cl-].[Mn+2].c1cc2nc(c1)CN[C@@H]1CCCC[C@H]1NCCN[C@@H]1CCCC[C@H]1NC2", "note": "[M40403]", "values": [
      {"measurement": "plasma level of TNF-α", "setting": "TNF-α; M40403 2 mg/kg i.p., alone", "value": "No significant effect"},
      {"measurement": "hind paw volume (paw edema)", "setting": "[1]; M40403 2 mg/kg i.p.", "value": "attenuated the paw edema from day 30 to 35"},
      {"measurement": "body weight gain", "setting": "[2]; M40403 2 mg/kg i.p., alone", "value": "significantly attenuated the loss in body weight"},
      {"measurement": "efficacy in animal models of inflammation", "setting": "inflammation", "value": "effective"},
      {"measurement": "protection from bone resorption / joint pathology (FIG. 4: histological damage score and radiograph score)", "setting": "[4]; M40403 2 mg/kg i.p.", "value": "No significant protection"},
      {"measurement": "efficacy in an animal model of rheumatoid arthritis", "setting": "[6]", "value": "effective"},
      {"measurement": "development of collagen-induced arthritis (percent of arthritic rats)", "setting": "[5]; M40403 2 mg/kg i.p. every 24 h from day 25, alone", "value": "did not significantly altered the development of collagen-induced arthritis"},
      {"measurement": "arthritis index", "setting": "[5]; M40403 2 mg/kg i.p., alone", "value": "Neither M40403 (2 mg/kg) nor methotrexate. (0.015 mg/kg) treatment alone attenuated the arthritis index"},
      {"measurement": "plasma level of IL-1β", "setting": "IL-1β; M40403 2 mg/kg i.p., alone", "value": "No significant effect"}
    ]}
  ]
}
